Reference: patent US4985447A, “Certain benzoquinones, naphthoquinones and derivatives thereof which exhibit thromboxane A2 synthetase inhibition or receptor antagonism and the like” (Takeda Chemical Industries, Ltd., priority 1986, dated 1991)
“And” between values parts separate entries of the source, which are not always exact repeats. Equal entries are not always repeated.

Legend:
[1] = Toxicological study in the rat; format: in vivo, rat (male Wistar); set-up: key to Spleen: Widening of red pulp / Spleen: Congestion (dilatation of sinus) / Spleen: Extramedullary hematopoiesis / Spleen: Atrophy of white pulp / Liver: Parenchymal cell alteration / Kidney: Dilatation of pelvis / Heart: Cardiac cell alteration / Lung: Alteration / Bone marrow: Proliferation of erythroblast: -: negative; +: mild; ++: moderate; +++: severe; conditions: for Adrenals weight / Body weight (B.V.) / Brains weight / Gonads weight / Heart weight / Hypophy. weight / Kidney weight / Liver weight / Lung weight / Spleen weight / Thymus weight / Thyroid weight / Bone marrow: Proliferation of erythroblast / Heart: Cardiac cell alteration / Kidney: Dilatation of pelvis / Liver: Parenchymal cell alteration / Lung: Alteration / Spleen: Atrophy of white pulp / Spleen: Congestion (dilatation of sinus) / Spleen: Extramedullary hematopoiesis / Spleen: Widening of red pulp: 2 weeks; for Adrenals weight / Body weight (B.V.) / Brains weight / Gonads weight / Heart weight / Hypophy. weight / Kidney weight / Liver weight / Lung weight / Spleen weight / Thymus weight / Thyroid weight: mean; for A/G ratio / AI.P / Albumin / Calcium / GOT / GPK / GPT / Glucose / Greatinine / LAP / LDH / Total bilirubin / Total cholesterol / Total protein / Urea nitrogen: mean ± S.D.
Description: Procedure: Five weeks old, male Wistar rats were used. The rats were given the Compound 18 orally once a day for 14 days at doses of 100 and 300 mg/kg/10 ml of water as a suspension with 5% gum arabic. Control rats were given vehicle (10 ml/kg of water) alone. After fasting a night following the final dose of a 2 week treatment, the rats were anesthetized with ethyl ether and the blood was collected into a heparinized syringe from the abdominal aorta and the plasma was separated for the examination of blood chemistry. Blood parameters such as total protein, glucose, calcium, urea nitrogen, creatinine, total cholesterol, total bilirubin, alkaline phosphatase (ALP), leucine aminopeptidase (LAP), lactate dehydrogenase (LDH), glutamic oxaloacetic transaminase (GOT), glutamic pyruvic transaminase (GPT), creatine phosphokinase (CPK), albumin and A/G ratio were analysed by use of auto-analyzer (Hitachi 716). The organs such as liver, kidney, heart, lung, spleen, adrenal glands, thymus, testris, brain and hypophysis were excised and weighed. Some organs (liver, kidney, heart, lung, spleen) were fixed in 10% neutral formalin solution for histological examinations. Bone marrow was fixed as well without weighing. These fixed organs were stained with Hematoxyline-Eosin for histological examinations.

[2] = Improving effect on glomerulonephritis in rat; format: in vivo, rat (Sprague-Dawley); conditions: for total urinary protein / urinary albumin: 50 mg/kg/day, p.o.
Description: Procedure: Nephritic rat was prepared according to the method of Matsunaga et al.[Folia pharmacol. japon. 78, 491,(1981)]using Sprague-Dawley rat (male, 5 weeks old). That is, the rat was immunized preliminarily by subcutaneous injection of a mixture of 3 mg of rabbit serum albumin (RSA) and an equal volume of Freund's complete adjuvant, and from two weeks after that RSA was given intravenously at the dose of 1 mg/rat three times a week for 8 weeks. Then 24 hour-urine was collected to determine total urinary protein and urinary albumin. Rats of which total urinary protein was 20 mg/100g/24hr or more were chosen for the experiment. The control group received water (vehicle) alone at 10 ml/kg/day, and the Compound No.18 group received the Compound at the dose of 50 mg/kg/day (10 ml/kg, water) once a day for 2 weeks. After 1 week and 2 weeks of treatment, 24 hour-urine was collected to determine total urinary protein and urinary albumin.

[3] = Proteinuria improving effect in rat with adriamycin-induced nephrosis; format: in vivo, rat (Sprague-Dawley)
Description: Procedure: The experiment was carried out with Sprague-Dawley rat (male, 5 weeks old) according to the method of T. Bertani et al.[(Laboratory Invest.4, 16, (1982)]. Adriamycin was given intravenously at the dose of 7.5 mg/kg and two weeks later urine was collected for 24 hours after water was loaded orally at 10 ml/kg. Total urinary protein and albumin excreted in the urine were determined; rats of which total urinary protein was 20 mg/100g/24 hours or more were chosen for the experiment. The control group received water (vehicle) alone at 10 ml/kg/day, and the Compound No.18 group received the Compound at the dose of 50 mg/kg/day (10 ml/kg, water) once a day for 2 weeks. After 1 week or 2 weeks of treatment with the drug, 24 hour-urine was collected to determine total urinary protein and albumin. Two weeks later blood was taken from the thoracic aorta of the rat under pentobarbital anesthesia (50 mg/kg, intraperitoneal injection) to determine plasma cholesterol level.

[4] = 100 mg/kg/day, single rats No. 7-10
[5] = 300 mg/kg/day, single rats No. 11-15
[6] = 1 week after, *p<0.05 against pretreatment
[7] = 2 weeks after, *p<0.05 against pretreatment
[8] = 50 mg/kg/day, p.o., 1 week after
[9] = 50 mg/kg/day, p.o., 2 weeks after
[10] = 50 mg/kg/day, p.o., before treatment

CC1=C(C)C(=O)C(Cc2cccnc2)=C(C)C1=O [Compound No. 18]
Adrenals weight ([1]; 100 mg/kg orally): 47.7 mg | Body weight (B.V.) ([1]; 100 mg/kg orally): 170.3 g | Brains weight ([1]; 100 mg/kg orally): 1.747 g | Gonads weight ([1]; 100 mg/kg orally): 1.906 g | Heart weight ([1]; 100 mg/kg orally): 0.709 g | Hypophy. weight ([1]; 100 mg/kg orally): 8.3 mg | Kidney weight ([1]; 100 mg/kg orally): 1.579 g | Liver weight ([1]; 100 mg/kg orally): 6.347 g | Lung weight ([1]; 100 mg/kg orally): 0.872 g | Spleen weight ([1]; 100 mg/kg orally): 0.673 g | Thymus weight ([1]; 100 mg/kg orally): 0.45 g | Thyroid weight ([1]; 100 mg/kg orally): 11.4 mg | Bone marrow: Proliferation of erythroblast [1, 4]: - | Heart: Cardiac cell alteration [1, 4]: - | Kidney: Dilatation of pelvis [1, 4]: - (2×) and ++ and + | Liver: Parenchymal cell alteration [1, 4]: - | Lung: Alteration [1, 4]: - | Spleen: Atrophy of white pulp [1, 4]: - | Spleen: Congestion (dilatation of sinus) [1, 4]: - | Spleen: Extramedullary hematopoiesis [1, 4]: + | Spleen: Widening of red pulp [1, 4]: - | A/G ratio ([1]; 100 mg/kg/day): 1.65 ± 0.05 | AI.P ([1]; 100 mg/kg/day): 194 ± 32 U/I | Albumin ([1]; 100 mg/kg/day): 3.43 ± 0.05 g % | Calcium ([1]; 100 mg/kg/day): 9.84 ± 0.41 mg % | GOT ([1]; 100 mg/kg/day): 57 ± 6 U/I | GPK ([1]; 100 mg/kg/day): 44 ± 5 U/I | GPT ([1]; 100 mg/kg/day): 13 ± 1 U/I | Glucose ([1]; 100 mg/kg/day): 104 ± 11 mg % | Greatinine ([1]; 100 mg/kg/day): 0.5 ± 0.0 mg % | LAP ([1]; 100 mg/kg/day): 20 ± 1 U/I | LDH ([1]; 100 mg/kg/day): 86 ± 22 U/I | Total bilirubin ([1]; 100 mg/kg/day): 0.27 ± 0.03 mg % | Total cholesterol ([1]; 100 mg/kg/day): 47 ± 7 mg % | Total protein ([1]; 100 mg/kg/day): 5.51 ± 0.11 g % | Urea nitrogen ([1]; 100 mg/kg/day): 15.8 ± 0.7 mg % | body weight (in words) ([1]; 300 mg/kg): tended to have a lower body weight, but the change was not significant | splenomegaly (in words) ([1]; 300 mg/kg): one of 5 rats showed a mild splenomegaly | Adrenals weight ([1]; 300 mg/kg orally): 43.0 mg | Body weight (B.V.) ([1]; 300 mg/kg orally): 162.0 g | Brains weight ([1]; 300 mg/kg orally): 1.714 g | Gonads weight ([1]; 300 mg/kg orally): 1.873 g | Heart weight ([1]; 300 mg/kg orally): 0.913 g | Hypophy. weight ([1]; 300 mg/kg orally): 8.1 mg | Kidney weight ([1]; 300 mg/kg orally): 1.508 g | Liver weight ([1]; 300 mg/kg orally): 6.264 g | Lung weight ([1]; 300 mg/kg orally): 0.929 g | Spleen weight ([1]; 300 mg/kg orally): 0.703 g | Thymus weight ([1]; 300 mg/kg orally): 0.447 g | Thyroid weight ([1]; 300 mg/kg orally): 12.0 mg | extramedullary hematopoiesis (in words) ([1]; 300 mg/kg, one of 5 rats): increased extramedullary hematopoiesis | Bone marrow: Proliferation of erythroblast [1, 5]: - | Heart: Cardiac cell alteration [1, 5]: - | Kidney: Dilatation of pelvis [1, 5]: - (4×) and + | Liver: Parenchymal cell alteration [1, 5]: - | Lung: Alteration [1, 5]: - | Spleen: Atrophy of white pulp [1, 5]: - (4×) and + | Spleen: Congestion (dilatation of sinus) [1, 5]: - | Spleen: Extramedullary hematopoiesis [1, 5]: + (4×) and ++ | Spleen: Widening of red pulp [1, 5]: - (3×) and + (2×) | A/G ratio ([1]; 300 mg/kg/day): 1.73 | AI.P ([1]; 300 mg/kg/day): 149 U/I | Albumin ([1]; 300 mg/kg/day): 3.47 ± 0.13 g % | Calcium ([1]; 300 mg/kg/day): 9.70 ± 0.18 mg % | GOT ([1]; 300 mg/kg/day): 64 ± 9 U/I | GPK ([1]; 300 mg/kg/day): 52 ± 9 U/I | GPT ([1]; 300 mg/kg/day): 14 ± 1 U/I | Glucose ([1]; 300 mg/kg/day): 97 ± 11 mg % | Greatinine ([1]; 300 mg/kg/day): 0.4 ± 0.1 mg % | LAP ([1]; 300 mg/kg/day): 19 ± 1 U/I | LDH ([1]; 300 mg/kg/day): 99 ± 18 U/I | Total bilirubin ([1]; 300 mg/kg/day): 0.28 ± 0.02 mg % | Total cholesterol ([1]; 300 mg/kg/day): 41 ± 14 mg % | Total protein ([1]; 300 mg/kg/day): 5.48 ± 0.20 g % | Urea nitrogen ([1]; 300 mg/kg/day): 14.5 ± 0.6 mg % | blood chemistry (in words) ([1]; 100 and 300 mg/kg): no changes in the blood chemistry | organ weight (in words) ([1]; 100 and 300 mg/kg): no significant changes in any organ weight | histology of the other organs (in words) ([1]; after 2 weeks): The other organs showed no changes | effect on nephritis (in words) ([2]; 50 mg/kg/day for 2 weeks): improves nephritis | total urinary protein compared with control group (in words) ([2]; 50 mg/kg/day for 2 weeks): decreased total urinary protein | urinary albumin compared with control group (in words) ([2]; 50 mg/kg/day for 2 weeks): decreased total urinary protein and urinary albumin | total urinary protein [2, 6]: 37 ± 8 mg/100 g/24 hr | urinary albumin [2, 6]: 17 ± 5 | total urinary protein [2, 7]: 48 ± 16 mg/100 g/24 hr | urinary albumin [2, 7]: 24 + 12 | total urinary protein ([2]; before treatment): 75 ± 28 mg/100 g/24 hr | urinary albumin ([2]; before treatment): 45 ± 21 | effect on adriamycin-induced nephrosis (in words) ([3]; 50 mg/kg/day for 2 weeks): improves adriamycin-induced nephrosis | total urinary protein versus pretreatment value (in words) ([3]; 50 mg/kg/day for 2 weeks): neither total urinary protein nor urinary albumin differed from the respective pretreatment values | urinary albumin versus pretreatment value (in words) ([3]; 50 mg/kg/day for 2 weeks): neither total urinary protein nor urinary albumin differed from the respective pretreatment values | total urinary protein [3, 8]: 55 ± 17 mg/100 g/24 hr | urinary albumin [3, 8]: 25 ± 10 | total urinary protein [3, 9]: 59 ± 9 mg/100 g/24 hr | urinary albumin [3, 9]: 31 ± 7 | serum cholesterol ([3]; 50 mg/kg/day, p.o., 2 weeks after, #p<0.05 against control): 49 ± 4 mg/dL | total urinary protein [3, 10]: 76 ± 28 mg/100 g/24 hr | urinary albumin [3, 10]: 28 ± 14 | serum cholesterol level (in words) ([3]; after 2 weeks, 50 mg/kg/day): decreased remarkably
